# Structures can show the parent of a compound that is named as a salt.
# How the values were obtained:
# human GnRH receptor = target: T1, human GnRH receptor (Homo sapiens, UniProt P30968); assay: 125I-leuprorelin binding inhibition on CHO cell membrane fraction containing human GnRH receptor; details: membrane fraction of human GnRH receptor-expressing CHO cells, 25° C. for 60 minutes, from a Hill plot
# T1 construct: expressed in transfected cells; host or cells: CHO (Chinese hamster ovary) cells; membrane fraction
# T1 sequence (P30968 1-328): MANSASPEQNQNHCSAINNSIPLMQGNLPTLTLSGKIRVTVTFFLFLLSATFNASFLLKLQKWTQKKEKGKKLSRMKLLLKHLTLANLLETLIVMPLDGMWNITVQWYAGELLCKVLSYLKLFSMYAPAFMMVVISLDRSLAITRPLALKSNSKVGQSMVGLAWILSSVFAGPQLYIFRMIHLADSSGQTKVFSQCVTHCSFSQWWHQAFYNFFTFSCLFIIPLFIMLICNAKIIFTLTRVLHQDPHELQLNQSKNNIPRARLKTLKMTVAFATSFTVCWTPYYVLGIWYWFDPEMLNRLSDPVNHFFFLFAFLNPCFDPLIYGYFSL
# Description: To a tube containing 10 μl of a 3×10^−4 M aqueous solution of leuprorelin and 10 μl of 0.01 mg/ml lactoperoxidase, 10 μl (37 MBq) of a solution of Na^125I was added. After stirring, 10 μl of 0.001% H2O2 was added, and a reaction was carried out at about 15 to 25° C. for 20 minutes. By adding 700 μl of a 0.05% TFA (trifluoroacetic acid) solution, the reaction was stopped, followed by purification by reversed-phase HPLC. The HPLC conditions used are shown below. ^125I-leuprorelin was eluted at a retention time of 26 to 27 minutes. […]
# The human membrane fraction prepared in paragraph (2) above was diluted with the assay buffer to yield a 200 μg/ml dilution, which was then dispensed at 188 μl per tube. […] To determine maximum binding quantity, a reaction mixture of 2 μl of 60% DMSO and 10 μl of 38 nM ^125I-leuprorelin was prepared. […]
# After a reaction was carried out at 25° C. for 60 minutes, the reaction mixture was aspirated and filtered through a polyethyleneimine-treated Whatman glass filter (GF-F). After this filtration, the radioactivity of ^125I-leuprorelin remaining on the filter paper was measured, using a γ-counter.
# The binding inhibition rate (%) for the subject compound (PMB) was calculated, using the equation: […]
SMILES,melting point [°C],IC50 (human GnRH receptor) [nM]
"CCOC(=O)c1cn(Cc2c(F)cccc2F)c2nc(-c3ccc([N+](=O)[O-])cc3)c(CBr)n2c1=O [Example 7, 3-bromomethyl-8-(2,6-difluorobenzyl)-5,8-dihydro-2-(4-nitrophenyl)-5-oxoimidazo[1,2-a]pyrimidine-6-carboxylic acid ethyl ester]",205 to 210,
"CCOC(=O)c1cn(Cc2c(F)cccc2F)c2nc(-c3ccc([N+](=O)[O-])cc3)c(CO)n2c1=O [Example 11, 8-(2,6-difluorobenzyl)-5,8-dihydro-3-(hydroxymethyl)-2-(4-nitrophenyl)-5-oxoimidazo[1,2-a]pyrimidine-6-carboxylic acid ethyl ester]",230 to 232,
"CCNC(=O)Nc1ccc(-c2nc3n(Cc4c(F)cccc4F)cc(C(=O)OC(C)C)c(=O)n3c2CN(C)Cc2ccccc2)cc1 [Example 34, 8-(2,6-difluorobenzyl)-5,8-dihydro-2-[4-(ethylaminocarbonylamino)phenyl]-3-(N-methyl-N-benzylaminomethyl)-5-oxoimidazo[1,2-a]pyrimidine-6-carboxylic acid isopropyl ester]",198 to 200,
"Cc1c(-c2ccccc2)nc2n(Cc3c(F)cccc3F)cc(C(=O)CC(C)C)c(=O)n12 (as salt: hydrochloride) [Example 28, 8-(2,6-difluorobenzyl)-5,8-dihydro-2-phenyl-3-methyl-6-(3-methylbutyryl)-5-oxoimidazo[1,2-a]pyrimidine]",158 to 166,
"CON(C)C(=O)c1cn(Cc2c(F)cccc2F)c2nc(-c3ccc(N)cc3)c(CN(C)Cc3ccccc3)n2c1=O [Example 30, 8-(2,6-difluorobenzyl)-5,8-dihydro-2-(4-aminophenyl)-3-(N-methyl-N-benzylaminomethyl)-5-oxoimidazo[1,2-a]pyrimidine-6-(N-methyl-N-methoxy)carboxamide]",89 to 91,
"CCOC(=O)c1cn(Cc2c(F)cccc2F)c2nc(-c3ccc([N+](=O)[O-])cc3)c(CN(C)Cc3ccccc3)n2c1=O [Example 9, 8-(2,6-difluorobenzyl)-5,8-dihydro-3-(N-methyl-N-benzylaminomethyl)-2-(4-nitrophenyl)-5-oxoimidazo[1,2-a]pyrimidine-6-carboxylic acid ethyl ester]",187 to 189,
"CCOC(=O)c1cn(Cc2c(F)cccc2F)c2nc(-c3ccc([N+](=O)[O-])cc3)c(C)n2c1=O [Example 5, 8-(2,6-difluorobenzyl)-5,8-dihydro-3-methyl-2-(4-nitrophenyl)-5-oxoimidazo[1,2-a]pyrimidine-6-carboxylic acid ethyl ester]",219 to 221,
"Cc1c(Cc2ccccc2)c(=O)n2c(CN(C)Cc3ccccc3)c(-c3ccc(NC(=O)OC(C)(C)C)cc3)nc2n1Cc1c(F)cccc1F [Example 19, 2-[4-(N-Boc-amino)phenyl]-8-(2,6-difluorobenzyl)-5,8-dihydro-3-(N-methyl-N-benzylaminomethyl)-6-benzyl-7-methyl-5-oxoimidazo[1,2-a]pyrimidine]",179 to 184,
"CCOC(=O)c1cn(Cc2c(F)cccc2F)c2nc(-c3ccc(NC(=O)C(C)C)cc3)c(CN(C)Cc3ccccc3)n2c1=O [Example 14, 8-(2,6-difluorobenzyl)-5,8-dihydro-2-(4-isobutyrylaminophenyl)-3-(N-methyl-N-benzylaminomethyl)-5-oxoimidazo[1,2-a]pyrimidine-6-carboxylic acid ethyl ester]",98 to 103,
"CN(Cc1ccccc1)Cc1c(-c2ccc(NC(=O)c3ccoc3)cc2)nc2n(Cc3c(F)cccc3F)cc(C(=O)c3ccccc3)c(=O)n12 [Example 31, 8-(2,6-difluorobenzyl)-5,8-dihydro-2-(3-furylcarbonylaminophenyl)-3-(N-methyl-N-benzylaminomethyl)-6-benzoyl-5-oxoimidazo [1,2-a]pyrimidine]",172 to 174,
"CCNC(=O)Nc1ccc(-c2nc3n(Cc4c(F)cccc4F)cc(C(=O)OCC)c(=O)n3c2CN(C)Cc2ccccc2)cc1 [Example 15, 8-(2,6-difluorobenzyl)-5,8-dihydro-2-(4-ethylaminocarbonylaminophenyl)-3-(N-methyl-N-benzylaminomethyl)-5-oxoimidazo[1,2-a]pyrimidine-6-carboxylic acid ethyl ester]",191 to 196,0.5
"CCOC(=O)c1cnc2nc(-c3ccccc3)c(C)n2c1O [Example 1, 5-hydroxy-3-methyl-2-phenylimidazo[1,2-a]pyrimidine-6-carboxylic acid ethyl ester]",220 to 225,
"CCOC(=O)c1cn(Cc2c(F)cccc2F)c2nc(-c3ccc(N)cc3)c(CN(C)Cc3ccccc3)n2c1=O [Example 12, 2-(4-aminophenyl)-8-(2,6-difluorobenzyl)-5,8-dihydro-3-(N-methyl-N-benzylaminomethyl)-5-oxoimidazo[1,2-a]pyrimidine-6-carboxylic acid ethyl ester]",161 to 166,
"CC(=O)N(C(=O)OC(C)(C)C)c1ccc(-c2nc3n(Cc4c(F)cccc4F)c(C)c(Cc4ccccc4)c(=O)n3c2C)cc1 [Example 17, 8-(2,6-difluorobenzyl)-5,8-dihydro-2-(4-(N-Boc-N-acetylamino)phenyl)-3-methyl-6-benzyl-7-methyl-5-oxoimidazo[1,2-a]pyrimidine]",176 to 177,
